Laboratory results from patent publication US20150328245A1, “Agents for Eliminating Tumour-Initiating Cells” (priority 2012, published 2015).

How the values were obtained:
[1] = system: DU145; experiment: In vitro colorimetric cell death assay (MTT); format: cell-based; conditions: Homo sapiens, DU-145; DU145, MTT, 48 hours; read-out: IC 50
Method: (§1) It's an in vitro colorimetric assay for assessing cell viability where the cells are grown in Two-dimensional surface.
(§2) An exemplary procedure for the assay follows. Cancer cells and normal cells were plated in a 96 well plate as per predetermined plating efficiency. The plate was incubated for 24 hours in a 5% CO2 atmosphere at 37 degrees Celsius, a range of concentrations of the compounds I-1, I-2 and I-3 as well as cisplatin (known chemotherapeutic agents) were added to the separate wells, the plate was incubated further for 48 hours in a 5% CO2 atmosphere, the plate was centrifuged twice at 3000 rpm for 3 minutes, the supernatant fluid was discarded, 100 uL of 0.5 mg/mL MTT solution was added and the plate was incubated for 4 hours in a 5% CO2 atmosphere at 37 degrees Celsius. The plate was then centrifuged twice at 3000 rpm for 3 minutes, supernatant, was aspirated very carefully, 200 uL DMSO was added to each well to solubilize MTT crystals and mixed well by shaking the plate, the plate was incubated for 10 minutes in a 5% CO2 atmosphere at 37 degrees Celsius, the plate placed on the shaker of an ELISA plate reader and the absorbance at 570 nm was measured, then the percentage of viable cells remaining was calculated by first subtracting the background absorbance then comparing to the absorbance of a non-drug-treated cell sample, and the results were plotted on a graph to determine the IC50 for the compounds and cisplatin.

[2] = system: MDAMB231; experiment: In vitro colorimetric cell death assay (MTT); format: cell-based; conditions: Homo sapiens, MDA-MB-231, 48 hours
Method: as §1, §2

[3] = system: L 929; experiment: In vitro colorimetric cell death assay (MTT); format: cell-based; conditions: Mus musculus, L929; L 929, MTT, 48 hours; read-out: IC 50
Method: as §1, §2

[4] = system: MCF10A (normal breast cell line); experiment: In vitro colorimetric cell death assay (MTT); format: cell-based; conditions: 48 hours
Method: as §1, §2

[5] = system: MCF-7; experiment: In vitro colorimetric cell death assay (MTT); format: cell-based; conditions: Homo sapiens, MCF7; MCF-7, MTT, 48 hours
Method: as §1, §2

[6] = In vivo maximum tolerated dose assay for compound I-2; set-up: species or system BALB/c mice
Method: In vivo maximum tolerated dose (MTD) toxicity assay was carried out to evaluate the highest dose of a pharmaceutical treatment that will produce the desired effect without unacceptable toxicity. The purpose of administering MTD is to determine whether long-term exposure to a compound might lead to unacceptable adverse health effects in a subject, when the level of exposure is not sufficient to cause premature mortality due to short-term toxic effects.
An exemplary procedure for the in vivo maximum tolerated dose toxicity assay follows. A statistically appropriate number of FEMALE BALB/c MICE were interperitoneally treated with the compound I-2 at three different dose levels 3 mg/kg, 1 mg/kg, and 0.3 mg/kg. Body weight and clinical sign of all the animals were observed daily during dosing and post dosing period.

[7] = system: cancer cell lines; experiment: In vitro colorimetric cell death assay (MTT), overall statement; format: cell-based
Method: as §1, §2

COc1cc2c(OC3OCC(OC)C(OC)C3O)c3c(c(-c4ccc5c(c4)OCO5)c2cc1OC)C(=O)OC3 (centres unmarked) [I-2]
IC50 [1]: 2450 nM
IC50 [2]: 330 nM
IC50 [3]: 1380 nM
IC50 [4]: No Activity
IC50 [5]: 954 nM
toxicity finding of the given dose ([6]; 0.3 mg/kg q7d×4 i.p.): safe
toxicity finding of the given dose ([6]; 1 mg/kg q7d×4 i.p.): safe
mortality ([6]; 3 mg/kg q7d×4 i.p.): more than one mortality
toxicity finding of the given dose ([6]; 3 mg/kg q7d×4 i.p.): toxic
Mean body weight ([6]; G1 3 mg/kg q7dX4, day 1): 2 g
Mean body weight ([6]; G1 3 mg/kg q7dX4, day 2): 2 g
Mean body weight ([6]; G1 3 mg/kg q7dX4, day 3): 2 g
Mean body weight ([6]; G1 3 mg/kg q7dX4, day 4): 2 g
Mean body weight ([6]; G1 3 mg/kg q7dX4, day 5): 2 g
Mean body weight ([6]; G1 3 mg/kg q7dX4, day 6): 2 g
Mean body weight ([6]; G1 3 mg/kg q7dX4, day 7): 2 g
Mean body weight ([6]; G1 3 mg/kg q7dX4, day 8): 2 g
Mean body weight ([6]; G1 3 mg/kg q7dX4, day 9): 2 g
Mean body weight ([6]; G1 3 mg/kg q7dX4, day 10): 2 g
Mean body weight ([6]; G1 3 mg/kg q7dX4, day 11): 2 g
Mean body weight ([6]; G1 3 mg/kg q7dX4, day 12): 2 g
Mean body weight ([6]; G1 3 mg/kg q7dX4, day 13): 2 g
Mean body weight ([6]; G1 3 mg/kg q7dX4, day 14): 2 g
Mean body weight ([6]; G1 3 mg/kg q7dX4, day 15): 2 g
Mean body weight ([6]; G1 3 mg/kg q7dX4, day 16): 2 g
Mean body weight ([6]; G1 3 mg/kg q7dX4, day 17): 2 g
Mean body weight ([6]; G1 3 mg/kg q7dX4, day 18): 2 g
Mean body weight ([6]; G1 3 mg/kg q7dX4, day 19): 2 g
Mean body weight ([6]; G1 3 mg/kg q7dX4, day 20): 2 g
Mean body weight ([6]; G1 3 mg/kg q7dX4, day 21): 2 g
Mean body weight ([6]; G1 3 mg/kg q7dX4, day 22): 2 g
Mean body weight ([6]; G1 3 mg/kg q7dX4, day 23): 2 g
Mean body weight ([6]; G1 3 mg/kg q7dX4, day 24): 2 g
Mean body weight ([6]; G1 3 mg/kg q7dX4, day 25): 2 g
Mean body weight ([6]; G1 3 mg/kg q7dX4, day 26): 2 g
Mean body weight ([6]; G1 3 mg/kg q7dX4, day 27): 2 g
Mean body weight ([6]; G1 3 mg/kg q7dX4, day 28): 2 g
Mean body weight ([6]; G1 3 mg/kg q7dX4, day 29): 2 g
Mean body weight ([6]; G2 1 mg/kg q7dX4, day 1): 23. g
Mean body weight ([6]; G2 1 mg/kg q7dX4, day 2): 23. g
Mean body weight ([6]; G2 1 mg/kg q7dX4, day 3): 23. g
Mean body weight ([6]; G2 1 mg/kg q7dX4, day 4): 24. g
Mean body weight ([6]; G2 1 mg/kg q7dX4, day 5): 24. g
Mean body weight ([6]; G2 1 mg/kg q7dX4, day 6): 24. g
Mean body weight ([6]; G2 1 mg/kg q7dX4, day 7): 24. g
Mean body weight ([6]; G2 1 mg/kg q7dX4, day 8): 24. g
Mean body weight ([6]; G2 1 mg/kg q7dX4, day 9): 24. g
Mean body weight ([6]; G2 1 mg/kg q7dX4, day 10): 24. g
Mean body weight ([6]; G2 1 mg/kg q7dX4, day 11): 24. g
Mean body weight ([6]; G2 1 mg/kg q7dX4, day 12): 24. g
Mean body weight ([6]; G2 1 mg/kg q7dX4, day 13): 25. g
Mean body weight ([6]; G2 1 mg/kg q7dX4, day 14): 24. g
Mean body weight ([6]; G2 1 mg/kg q7dX4, day 15): 24. g
Mean body weight ([6]; G2 1 mg/kg q7dX4, day 16): 25. g
Mean body weight ([6]; G2 1 mg/kg q7dX4, day 17): 25. g
Mean body weight ([6]; G2 1 mg/kg q7dX4, day 18): 25. g
Mean body weight ([6]; G2 1 mg/kg q7dX4, day 19): 25. g
Mean body weight ([6]; G2 1 mg/kg q7dX4, day 20): 25. g
Mean body weight ([6]; G2 1 mg/kg q7dX4, day 21): 25. g
Mean body weight ([6]; G2 1 mg/kg q7dX4, day 22): 25. g
Mean body weight ([6]; G2 1 mg/kg q7dX4, day 23): 25. g
Mean body weight ([6]; G2 1 mg/kg q7dX4, day 24): 25. g
Mean body weight ([6]; G2 1 mg/kg q7dX4, day 25): 25. g
Mean body weight ([6]; G2 1 mg/kg q7dX4, day 26): 26. g
Mean body weight ([6]; G2 1 mg/kg q7dX4, day 27): 25. g
Mean body weight ([6]; G2 1 mg/kg q7dX4, day 28): 25. g
Mean body weight ([6]; G2 1 mg/kg q7dX4, day 29): 25. g
Mean body weight ([6]; G3 0.3 mg/kg q7dX4, day 1): 2 g
Mean body weight ([6]; G3 0.3 mg/kg q7dX4, day 2): 2 g
Mean body weight ([6]; G3 0.3 mg/kg q7dX4, day 3): 2 g
Mean body weight ([6]; G3 0.3 mg/kg q7dX4, day 4): 2 g
Mean body weight ([6]; G3 0.3 mg/kg q7dX4, day 5): 2 g
Mean body weight ([6]; G3 0.3 mg/kg q7dX4, day 6): 2 g
Mean body weight ([6]; G3 0.3 mg/kg q7dX4, day 7): 2 g
Mean body weight ([6]; G3 0.3 mg/kg q7dX4, day 8): 2 g
Mean body weight ([6]; G3 0.3 mg/kg q7dX4, day 9): 2 g
Mean body weight ([6]; G3 0.3 mg/kg q7dX4, day 10): 2 g
Mean body weight ([6]; G3 0.3 mg/kg q7dX4, day 11): 2 g
Mean body weight ([6]; G3 0.3 mg/kg q7dX4, day 12): 2 g
Mean body weight ([6]; G3 0.3 mg/kg q7dX4, day 13): 2 g
Mean body weight ([6]; G3 0.3 mg/kg q7dX4, day 14): 2 g
Mean body weight ([6]; G3 0.3 mg/kg q7dX4, day 15): 2 g
Mean body weight ([6]; G3 0.3 mg/kg q7dX4, day 16): 2 g
Mean body weight ([6]; G3 0.3 mg/kg q7dX4, day 17): 2 g
Mean body weight ([6]; G3 0.3 mg/kg q7dX4, day 18): 2 g
Mean body weight ([6]; G3 0.3 mg/kg q7dX4, day 19): 2 g
Mean body weight ([6]; G3 0.3 mg/kg q7dX4, day 20): 2 g
Mean body weight ([6]; G3 0.3 mg/kg q7dX4, day 21): 2 g
Mean body weight ([6]; G3 0.3 mg/kg q7dX4, day 22): 2 g
Mean body weight ([6]; G3 0.3 mg/kg q7dX4, day 23): 2 g
Mean body weight ([6]; G3 0.3 mg/kg q7dX4, day 24): 2 g
Mean body weight ([6]; G3 0.3 mg/kg q7dX4, day 25): 2 g
Mean body weight ([6]; G3 0.3 mg/kg q7dX4, day 26): 2 g
Mean body weight ([6]; G3 0.3 mg/kg q7dX4, day 27): 2 g
Mean body weight ([6]; G3 0.3 mg/kg q7dX4, day 28): 2 g
Mean body weight ([6]; G3 0.3 mg/kg q7dX4, day 29): 2 g
body weight / growth pattern ([6]; group G1 3 mg/kg q7d×4): decreased body weight after first treatment then they showed normal growth pattern
Percentage Body weight change ([6]; group G1 3 mg/kg q7d×4, day 2): −3.2%
body weight / growth pattern ([6]; group G2 1 mg/kg q7d×4): normal growth pattern throughout the experimental period
body weight gain compared to other treatment groups ([6]; group G2 1 mg/kg q7d×4): maximum body weight gain
body weight / growth pattern ([6]; group G3 0.3 mg/kg q7d×4): decreased body weight after first treatment then they showed normal growth pattern
body weight gain as compared to group G1 ([6]; group G3 0.3 mg/kg q7d×4): marginal body weight gain
Percentage Body weight change ([6]; group G3 0.3 mg/kg q7d×4, day 3): −3.8%
anticancer activity in cancer cell lines as compared to cisplatin [7]: high anticancer activity
